Measured values reported in patent US10670605B2, “Cysteine reactive probes and uses thereof” (The Scripps Research Institute, priority 2015, dated 2020).
Each block holds one compound with its values, some of them ahead of it.

Tests used:
Assay in all cases: Competitive isoTOP-ABPP, cell lysates;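 on isoTOP-ABPP reactivity profile ratio, O00170 C122: Heavy/light ratio DMSO over fragment-treated so higher means more cysteine engagement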
Type in all cases: binding
ADA C75 (P00813) = biological target: T1, ADA C75 (P00813) (Homo sapiens, UniProt P00813); conditions: for isoTOP-ABPP ratio (reactivity profile), P00813_C75: 500 μm in-vitro ramos; for isoTOP-ABPP reactivity profile ratio, P00813_C75 / isoTOP-ABPP reactivity ratio, P00813_C75: 500 μm, in-vitro_ramos
T1 sequence (P00813 1-363): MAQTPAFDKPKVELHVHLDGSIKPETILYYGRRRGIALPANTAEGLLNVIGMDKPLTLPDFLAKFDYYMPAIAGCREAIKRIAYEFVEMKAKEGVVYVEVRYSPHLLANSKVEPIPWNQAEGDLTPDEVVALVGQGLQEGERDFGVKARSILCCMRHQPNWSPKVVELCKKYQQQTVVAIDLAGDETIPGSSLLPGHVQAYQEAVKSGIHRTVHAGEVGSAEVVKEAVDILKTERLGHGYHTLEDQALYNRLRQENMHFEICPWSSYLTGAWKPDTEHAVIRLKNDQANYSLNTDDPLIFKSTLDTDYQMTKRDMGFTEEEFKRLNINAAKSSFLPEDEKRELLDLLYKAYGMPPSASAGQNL

IDH1 C269 (O75874) = IDH1 C269 (O75874) (Homo sapiens, UniProt O75874); conditions: for isoTOP-ABPP reactivity profile ratio, O75874_C269 / isoTOP-ABPP reactivity ratio, O75874_C269: 500 μm
AIP C122 (O00170) = biological target: T2, AIP C122 (O00170) (Homo sapiens, UniProt O00170); conditions: for isoTOP-ABPP reactivity profile ratio, O00170_C122 / isoTOP-ABPP reactivity ratio, O00170_C122: 500 μm;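 on isoTOP-ABPP reactivity profile ratio, O00170 C122: Heavy/light ratio DMSO over fragment-treated so higher means more cysteine engagement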
T2 sequence (O00170 1-330): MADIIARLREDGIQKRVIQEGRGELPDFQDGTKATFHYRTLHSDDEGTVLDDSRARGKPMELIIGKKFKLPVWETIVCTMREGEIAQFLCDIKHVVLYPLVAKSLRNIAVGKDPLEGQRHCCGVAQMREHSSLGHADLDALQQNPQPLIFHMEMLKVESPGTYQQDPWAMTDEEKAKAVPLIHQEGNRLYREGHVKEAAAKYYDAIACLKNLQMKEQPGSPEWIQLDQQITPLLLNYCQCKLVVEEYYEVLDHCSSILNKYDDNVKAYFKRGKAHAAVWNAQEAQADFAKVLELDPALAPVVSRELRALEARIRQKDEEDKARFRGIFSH

USP22 C171 (Q9UPT9) = biological target: T3, USP22 C171 (Q9UPT9) (Homo sapiens, UniProt Q9UPT9)
T3 sequence (Q9UPT9 1-525): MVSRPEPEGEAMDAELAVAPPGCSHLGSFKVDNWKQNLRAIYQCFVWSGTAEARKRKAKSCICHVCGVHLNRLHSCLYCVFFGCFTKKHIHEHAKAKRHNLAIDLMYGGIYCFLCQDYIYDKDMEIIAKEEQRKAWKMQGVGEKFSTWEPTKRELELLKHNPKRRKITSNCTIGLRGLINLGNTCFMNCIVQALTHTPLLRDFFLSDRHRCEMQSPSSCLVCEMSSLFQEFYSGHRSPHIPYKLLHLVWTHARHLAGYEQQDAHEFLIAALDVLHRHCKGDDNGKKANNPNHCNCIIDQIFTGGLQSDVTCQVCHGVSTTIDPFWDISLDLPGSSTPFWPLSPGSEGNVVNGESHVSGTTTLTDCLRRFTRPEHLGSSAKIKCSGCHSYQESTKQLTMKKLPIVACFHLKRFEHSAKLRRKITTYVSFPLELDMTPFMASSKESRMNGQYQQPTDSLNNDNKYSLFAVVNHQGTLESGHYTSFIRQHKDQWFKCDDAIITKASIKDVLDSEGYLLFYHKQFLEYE

Chain of IDH1 C269 (O75874) (O75874 whole entry, the tested form may be a part): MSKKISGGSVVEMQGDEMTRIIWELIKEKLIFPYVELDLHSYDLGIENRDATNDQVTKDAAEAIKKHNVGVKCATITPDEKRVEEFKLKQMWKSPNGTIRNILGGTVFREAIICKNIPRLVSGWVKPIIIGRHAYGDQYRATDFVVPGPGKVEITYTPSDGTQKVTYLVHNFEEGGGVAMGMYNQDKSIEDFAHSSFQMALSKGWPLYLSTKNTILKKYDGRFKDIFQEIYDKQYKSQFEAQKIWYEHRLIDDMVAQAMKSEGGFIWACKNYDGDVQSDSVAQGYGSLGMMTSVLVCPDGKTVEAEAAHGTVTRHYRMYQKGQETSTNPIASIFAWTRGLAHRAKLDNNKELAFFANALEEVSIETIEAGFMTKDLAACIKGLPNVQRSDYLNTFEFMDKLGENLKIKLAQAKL

Structure (SMILES): O=C(CCl)N1CCC(C(O)(c2ccccc2)c2ccccc2)CC1 [compound 20]
- isoTOP-ABPP ratio (reactivity profile), P00813_C75 (ADA C75 (P00813)): 1.5
- R value (DMSO/fragment) (IDH1 C269 (O75874); 25 μM, endogenous IDH1, MDA-MB-231 proteome): 20
- isoTOP-ABPP ratio (reactivity profile), O75874_C269 (IDH1 C269 (O75874); 500 μm in-vitro ramos): 0.6
- isoTOP-ABPP ratio (reactivity profile), O00170_C122 (AIP C122 (O00170); 500 μm in-vitro ramos): 2.2
- isoTOP-ABPP ratio (reactivity profile), Q9UPT9_C171 (USP22 C171 (Q9UPT9); 500 μm in-vitro ramos): 20.0

Structure (SMILES): N#C/C(=C\c1cc(C(F)(F)F)cc(C(F)(F)F)c1)C(N)=O [compound 23]
- isoTOP-ABPP ratio (reactivity profile), P00813_C75 (ADA C75 (P00813)): 1.1
- isoTOP-ABPP ratio (reactivity profile), O75874_C269 (IDH1 C269 (O75874); 500 μm in-vitro ramos): 1.1
- isoTOP-ABPP ratio (reactivity profile), O75874_C269 (IDH1 C269 (O75874); 500 μm in-vitro ramos_231): 0.7
- isoTOP-ABPP ratio (reactivity profile), O00170_C122 (AIP C122 (O00170); 500 μm in-vitro ramos): 1.4
- isoTOP-ABPP ratio (reactivity profile), O00170_C122 (AIP C122 (O00170); 500 μm in-vitro ramos_231): 0.7
- isoTOP-ABPP ratio (reactivity profile), Q9UPT9_C171 (USP22 C171 (Q9UPT9); 500 μm in-vitro ramos_231): 5.1

Structure (SMILES): C=CC(=O)N(Cc1cccnc1)c1ccc(Oc2ccccc2)c(C(F)(F)F)c1 [compound 15]
- isoTOP-ABPP ratio (reactivity profile), P00813_C75 (ADA C75 (P00813)): 1.1
- isoTOP-ABPP ratio (reactivity profile), O75874_C269 (IDH1 C269 (O75874); 500 μm in-vitro ramos): 0.6
- isoTOP-ABPP ratio (reactivity profile), O00170_C122 (AIP C122 (O00170); 500 μm in-vitro ramos): 1.4

Structure (SMILES): CC(Br)C(=O)Nc1cc(C(F)(F)F)cc(C(F)(F)F)c1 (stereo not drawn) [compound 24]
- isoTOP-ABPP ratio (reactivity profile), P00813_C75 (ADA C75 (P00813)): 1.2
- isoTOP-ABPP ratio (reactivity profile), O75874_C269 (IDH1 C269 (O75874); 500 μm in-vitro ramos): 0.9
- isoTOP-ABPP ratio (reactivity profile), O00170_C122 (AIP C122 (O00170); 500 μm in-vitro ramos): 1.3
- isoTOP-ABPP ratio (reactivity profile), Q9UPT9_C171 (USP22 C171 (Q9UPT9); 500 μm in-vitro ramos): 3.1

Structure (SMILES): C=CC(=O)N(Cc1cccnc1)c1cc(C(F)(F)F)cc(C(F)(F)F)c1 [compound 31]
- isoTOP-ABPP reactivity ratio, P00813_C75 (ADA C75 (P00813)): 0.8
- isoTOP-ABPP reactivity ratio, O75874_C269 (IDH1 C269 (O75874); in-vitro_ramos): 0.7
- isoTOP-ABPP reactivity ratio, O75874_C269 (IDH1 C269 (O75874); in-vitro_ramos_231): 0.4
- isoTOP-ABPP reactivity ratio, O00170_C122 (AIP C122 (O00170); in-vitro_ramos): 0.6
- isoTOP-ABPP reactivity ratio, Q9UPT9_C171 (USP22 C171 (Q9UPT9); 500 μm, in-vitro_ramos_231): 2.1

Structure (SMILES): CC(Cl)C(=O)Nc1cc(C(F)(F)F)cc(C(F)(F)F)c1 (stereo not drawn) [compound 25]
- isoTOP-ABPP ratio (reactivity profile), O75874_C269 (IDH1 C269 (O75874); 500 μm in-vitro ramos_231): 1.0
- isoTOP-ABPP ratio (reactivity profile), Q9UPT9_C171 (USP22 C171 (Q9UPT9); 500 μm in-vitro ramos_231): 1.1

Structure (SMILES): CCN(CC)c1ccc(S(N)(=O)=O)cc1NC(=O)CCl [compound 30]
- isoTOP-ABPP reactivity ratio, P00813_C75 (ADA C75 (P00813)): 3.1
- isoTOP-ABPP ratio (reactivity profile), O75874_C269 (IDH1 C269 (O75874); 500 μm in-vitro ramos): 0.7
- isoTOP-ABPP ratio (reactivity profile), O00170_C122 (AIP C122 (O00170); 500 μm in-vitro ramos): 1.1
- isoTOP-ABPP reactivity ratio, O00170_C122 (AIP C122 (O00170); in-vitro_ramos): 2.0
- isoTOP-ABPP reactivity ratio, Q9UPT9_C171 (USP22 C171 (Q9UPT9); 500 μm, in-vitro_ramos): 2.3

Structure (SMILES): O=C(CCl)NCCc1c[nH]c2ccccc12 [compound 13]
- isoTOP-ABPP ratio, P00813_C75 (ADA C75 (P00813); 500 μM, invitro, ramos): 0.9
- isoTOP-ABPP ratio, O75874_C269 (IDH1 C269 (O75874); 500 μM, invitro, 231): 2.7
- isoTOP-ABPP ratio, O00170_C122 (AIP C122 (O00170); 500 μM, invitro, ramos): 0.9
- isoTOP-ABPP ratio, Q9UPT9_C171 (USP22 C171 (Q9UPT9); 500 μM, invitro, ramos): 0.8

Structure (SMILES): O=C(CCl)N1CCN(CC(=O)N2CCOCC2)CC1 [compound 29]
- isoTOP-ABPP ratio (reactivity profile), O75874_C269 (IDH1 C269 (O75874); 500 μm in-vitro ramos_231): 0.8
- isoTOP-ABPP ratio (reactivity profile), O00170_C122 (AIP C122 (O00170); 500 μm in-vitro ramos): 1.3

Structure (SMILES): O=C(/C=C/c1ccccc1)Nc1cc(C(F)(F)F)cc(C(F)(F)F)c1 [compound 26]
- isoTOP-ABPP ratio (reactivity profile), P00813_C75 (ADA C75 (P00813)): 0.8
- isoTOP-ABPP ratio (reactivity profile), O00170_C122 (AIP C122 (O00170); 500 μm in-vitro ramos): 0.9
- isoTOP-ABPP ratio (reactivity profile), Q9UPT9_C171 (USP22 C171 (Q9UPT9); 500 μm in-vitro ramos): 1.0

Other lines, results leading:

- isoTOP-ABPP reactivity profile ratio, O75874_C269 (IDH1 C269 (O75874); in-vitro_ramos_231): 20.0
Structure (SMILES): CC1CCc2ccccc2N1C(=O)CCl (stereo not drawn) [compound 45]

- isoTOP-ABPP reactivity profile ratio, P00813_C75 (ADA C75 (P00813)): 1.0
- isoTOP-ABPP reactivity profile ratio, O00170_C122 (AIP C122 (O00170); in-vitro_ramos_231): 1.4
Structure (SMILES): O=C(CCl)Nc1cccc2ncccc12 [compound 51]

- isoTOP-ABPP reactivity ratio, P00813_C75 (ADA C75 (P00813)): 2.3
- isoTOP-ABPP reactivity ratio, O75874_C269 (IDH1 C269 (O75874); in-vitro_ramos_231): 0.7
- isoTOP-ABPP reactivity ratio, O00170_C122 (AIP C122 (O00170); in-vitro_ramos): 1.5
- isoTOP-ABPP reactivity ratio, O00170_C122 (AIP C122 (O00170); in-vitro_ramos_231): 1.5
- isoTOP-ABPP reactivity ratio, Q9UPT9_C171 (USP22 C171 (Q9UPT9); 500 μm, in-vitro_ramos_231): 1.4
Structure (SMILES): C=CC(=O)Nc1cc(F)c(N2CCN(C(=O)OC(C)(C)C)CC2)c(F)c1 [compound 38]

- isoTOP-ABPP reactivity profile ratio, P00813_C75 (ADA C75 (P00813)): 1.2
- isoTOP-ABPP reactivity profile ratio, O75874_C269 (IDH1 C269 (O75874); in-vitro_ramos_231): 0.8
- isoTOP-ABPP reactivity profile ratio, O00170_C122 (AIP C122 (O00170); in-vitro_ramos): 2.1
- isoTOP-ABPP reactivity profile ratio, Q9UPT9_C171 (USP22 C171 (Q9UPT9); 500 μm, in-vitro_ramos): 4.5
Structure (SMILES): COc1cc(NC(=O)CCl)cc(OC)c1 [compound 43]

- isoTOP-ABPP reactivity profile ratio, O75874_C269 (IDH1 C269 (O75874); in-vitro_ramos_231): 20.0
- isoTOP-ABPP reactivity profile ratio, O00170_C122 (AIP C122 (O00170); in-vitro_ramos_231): 2.3
Structure (SMILES): O=C(CCl)N1CCc2cc(Br)ccc21 [compound 50]

- isoTOP-ABPP reactivity ratio, P00813_C75 (ADA C75 (P00813)): 0.9
Structure (SMILES): C=CC(=O)N1CCC(c2noc3ccc(F)cc23)CC1 [compound 37]

- isoTOP-ABPP reactivity profile ratio, O75874_C269 (IDH1 C269 (O75874); in-vitro_ramos_231): 0.8
Structure (SMILES): O=C(CCl)NC1C(O)OC(CO)C(O)C1O (mixture of isomers) [compound 44]

- isoTOP-ABPP reactivity ratio, P00813_C75 (ADA C75 (P00813)): 0.9
- isoTOP-ABPP reactivity ratio, O75874_C269 (IDH1 C269 (O75874); in-vitro_ramos): 0.8
Structure (SMILES): C=CC(=O)Nc1cc(C)c(Br)cc1C [compound 40]
